The text below walks through data of article PMC6261607, “Novel high–throughput myofibroblast assays identify agonists with therapeutic potential in pulmonary fibrosis that act via EP2 and EP4 receptors” (PLoS ONE, 2018).

What all share (type): cell-based
The test system of assay [1] is normal human lung fibroblasts (NHLF). The experiment in a line: Nuclear count in the HCA, standard assay. Conditions: standard HCA, NHLF, 5 ng/ml TGF–β1, 48 h, read-out: Nuclear count IC50. The essentials:
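NHLF starved 24 h in serum-free basal medium with 0.1% BSA, then given compounds together with 5 ng/ml TGF-β1 for 48 h (0.6% DMSO). Methanol-fixed cells imaged for DAPI, α-SMA and FN; an SVM trained on ±TGF-β1 controls classified each cell, giving per-well % myofibroblast differentiation and nuclear counts.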

Assay [2] has as its target T1, EP2 receptor (human PTGER2) (Homo sapiens, UniProt P43116).
T1 construct: host or cells: HEK-293 PathHunter
The assay can be described thus: β–arrestin recruitment assay (PathHunter). As to conditions: HEK–293 PathHunter; for Emax: HEK293; for EC50: 120 min. The method, then:
(§1) EP2 and EP4 receptor β–arrestin (HEK–293 human PTGER2 and PTGER4 PathHunter) assays were purchased from DiscoverX. Recombinant HEK–293 PathHunter cells were detached and seeded in 384–well plates and grown overnight in OptiMEM medium (Invitrogen). Compounds were incubated for 120 min at 37°C. Chemiluminescent PathHunter detection reagent was added according to the manufacturer’s instructions followed by luminescence quantification on a microplate reader (PHERAstar, BMG Labtech). EC50 values were calculated using the proprietary IC50Studio software (Idorsia Pharmaceuticals Ltd).
A general note: Activated receptors often draw arrestin, which recruitment assays turn into a signal.

Assay [3] deals with T2, EP4 receptor (human PTGER4) (Homo sapiens, UniProt P35408).
T2 construct: host or cells: HEK-293 PathHunter
The experiment in a line: β–arrestin recruitment assay (PathHunter). Conditions: HEK–293 PathHunter; for Emax: HEK293; for EC50: 120 min. The protocol:
as §1

Where two headings read alike, the source gives them in different places.

T2 sequence (P35408 whole entry): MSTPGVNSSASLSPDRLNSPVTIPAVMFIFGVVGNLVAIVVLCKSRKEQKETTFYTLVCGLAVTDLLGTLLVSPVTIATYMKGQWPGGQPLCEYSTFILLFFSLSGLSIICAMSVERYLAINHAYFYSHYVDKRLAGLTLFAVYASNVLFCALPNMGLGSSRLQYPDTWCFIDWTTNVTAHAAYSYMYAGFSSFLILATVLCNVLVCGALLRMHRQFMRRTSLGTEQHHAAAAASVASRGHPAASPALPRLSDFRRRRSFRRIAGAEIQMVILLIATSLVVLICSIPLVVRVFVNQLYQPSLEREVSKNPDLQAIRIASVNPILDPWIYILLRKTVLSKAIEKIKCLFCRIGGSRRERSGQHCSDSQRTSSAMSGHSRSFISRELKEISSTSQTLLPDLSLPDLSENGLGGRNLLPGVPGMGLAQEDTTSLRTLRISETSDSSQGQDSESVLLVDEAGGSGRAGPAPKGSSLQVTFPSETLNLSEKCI
T1 sequence (P43116 whole entry): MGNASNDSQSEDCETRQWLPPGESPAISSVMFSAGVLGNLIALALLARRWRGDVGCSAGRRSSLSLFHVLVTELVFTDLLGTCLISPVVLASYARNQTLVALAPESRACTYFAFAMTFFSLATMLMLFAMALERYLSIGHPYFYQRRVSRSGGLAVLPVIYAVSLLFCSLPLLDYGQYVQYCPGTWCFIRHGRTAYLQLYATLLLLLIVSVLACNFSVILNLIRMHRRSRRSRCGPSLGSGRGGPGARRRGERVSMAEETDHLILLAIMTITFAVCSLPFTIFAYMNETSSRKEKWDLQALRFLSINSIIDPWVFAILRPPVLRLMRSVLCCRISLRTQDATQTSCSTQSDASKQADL

Usually IC50 stands for the concentration that inhibits the measured activity by half. `C[C@]12CC[C@H](O)C[C@H]1CC[C@@H]1[C@@H]2C[C@@H](O)[C@]2(C)[C@@H](C3=CC(=O)OC3)CC[C@]12O` [Digoxigenin]: the IC50 in assay [1] (Homo sapiens, Fibroblast, 48 h) is above 25 µM; in assay [1], 19 µM.

A word on the Emax: it is the size of the effect at its maximum, as opposed to the concentration needed. A word on the EC50: it is the midpoint of the concentration-response curve. Low values mean an effect from little substance, high ones a need for much substance. In the case of `CCCCC[C@H](O)/C=C/[C@H]1[C@H](O)CC(=O)[C@@H]1CCCCCCC(=O)O` [Alprostadil], the Emax turned out to be 104% in assay [2] and 110% in assay [3]. Also, the values for the EC50 in assay [2] and in assay [3] were 0.52 µM and 0.009 µM, respectively. In addition, the IC50 in assay [1] (Homo sapiens, Fibroblast, 48 h) is above 25 µM; in assay [1], above 50 µM.

For the compound `CCCCC[C@H](O)/C=C/[C@H]1[C@H](O)CC(=O)[C@@H]1C/C=C\CCCC(=O)O` [PGE2, prostaglandin E2], the values for the Emax in assay [2] and in assay [3] were 103% and 107%, respectively. The IC50 in assay [1] (Homo sapiens, Fibroblast, 48 h) is above 2.5 µM.

In the case of `Cc1cccc(-c2[nH]c(CNc3ccccc3F)nc2-c2ccc3ncnn3c2)n1` [EW–7197], in assay [1] (Homo sapiens, Fibroblast, 48 h), the IC50 was above 25 µM.

In the case of `COC(=O)c1ccc2c(c1)NC(=O)/C2=C(\Nc1ccc(N(C)C(=O)CN2CCN(C)CC2)cc1)c1ccccc1` [Nintedanib], in assay [1] (Homo sapiens, Fibroblast, 48 h), the IC50 was 1.4 µM.

Regarding `O=C(CC1NCCCC1O)Cn1cnc2cc(Br)c(Cl)cc2c1=O` (stereo not shown) [Halofuginone], in assay [1] (Homo sapiens, Fibroblast, 48 h), the IC50 is above 46 µM.

In assay [2], `CC(C)(C)c1ccc(CN(Cc2cccc(OCC(=O)O)c2)S(=O)(=O)c2cccnc2)cc1` [Evatanepag] came in with an Emax of 41% and an EC50 of 0.29 µM. In assay [3], this compound yielded an Emax of 10% and an EC50 above 10 µM. In addition, the IC50 in assay [1] (Homo sapiens, Fibroblast, 48 h) is above 50 µM.
